From patent publication US4680293A, “3-imidazolylalkyl-, triazolylalkyl-, pyridinylalkyl-1,2,3-benzotriazin-4(3H)-ones and derivatives thereof” (American Cyanamid Company, priority 1986, dated 1987) come the findings set out here.

The assay has as its target T1, thromboxane synthetase (Rattus norvegicus, UniProt P49430).
T1 sequence (P49430 1-533): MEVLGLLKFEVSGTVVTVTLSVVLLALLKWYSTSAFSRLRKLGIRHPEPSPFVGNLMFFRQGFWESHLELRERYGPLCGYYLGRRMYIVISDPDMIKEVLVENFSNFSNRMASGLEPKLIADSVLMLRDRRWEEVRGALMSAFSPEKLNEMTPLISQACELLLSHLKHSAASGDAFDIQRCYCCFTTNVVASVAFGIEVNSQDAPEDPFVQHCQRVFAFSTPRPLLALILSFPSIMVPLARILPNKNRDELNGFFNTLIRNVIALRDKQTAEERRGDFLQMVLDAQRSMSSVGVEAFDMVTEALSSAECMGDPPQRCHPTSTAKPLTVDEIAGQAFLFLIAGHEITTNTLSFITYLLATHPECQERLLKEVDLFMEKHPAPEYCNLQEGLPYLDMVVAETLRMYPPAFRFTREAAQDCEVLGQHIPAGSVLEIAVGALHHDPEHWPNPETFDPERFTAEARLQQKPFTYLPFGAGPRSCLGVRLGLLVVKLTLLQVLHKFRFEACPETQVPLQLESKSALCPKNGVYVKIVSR
Description: Inhibition of thromboxane formation in washed SHR platelets (TXB2 by direct radioimmunoassay). The following applies: read-out: % Inhibition (of TXB2 formation), drug at 10^-4 M, 10 minutes at 37° C.

The structures appear in SMILES notation.

Description: From Okamoto-Aoki spontaneously hypertensive rats (SHR) (Taconic Farms, Germantown, NY) between 19 and 24 weeks in age, under urethane anesthesia, 10 μl of arterial blood was collected in one ml of 3.2% sodium citrate in a polystyrene tube. The blood was diluted with 3 ml cold saline and centrifuged at room temperature for 15 minutes at 460×g. The platelet rich plasma (PRP) was separated. The platelets were isolated by centrifuging the PRP for 10 minutes at 1060×g and were washed in 4 ml cold oxygenated Krebs phosphate buffer, pH 7.4. The chilled platelets recovered from centrifuging at 800×g for 10 minutes were resuspended in oxygenated Krebs phosphate buffer and diluted to contain 4.5-6.0×10^4 platelets/μl.
The inhibition of thromboxane (TX) formation was studied by determining the concentration of thromboxane B2 (TXB2), the stable hydrolysis product of TXA2. Assay samples, prepared on ice, contained 200 μl platelet suspension, 50 μl saline, and 50 μl vehicle or drug under study at a concentration of 10^-4 M (with OKY-1581, UK-37248-01, 1-benzylimidazole, and/or indomethacin used as standards). […] The TXB2 content for each sample was determined by a direct radioimmunoassay (RIA) utilizing a TXB2 specific RIA kit purchased from New England Nuclear, Boston, MA and results expressed as pg TXB2 formed minute^-1 sample^- 1, from which the percent inhibition of TXB2 formation was calculated.

In the case of `O=c1c2cc(Cl)ccc2nnn1CCCCn1ccnc1`, the inhibition at 100 µM is 79%.

For `CC(Cn1ccnc1)Cn1nnc2ccc(Cl)cc2c1=O` (centres unmarked) [6-Chloro-3-[3-(1H-imidazol-1-yl)-2-methylpropyl]-1,2,3-benzotriazin-4(3H)-one], the inhibition at 100 µM amounted to 97%.
